Experiments:
Geminin = biological target: T1, Geminin (Homo sapiens, UniProt O75496); experiment: Intracellular localization of exogenous Geminin-GFP in co-transfected MCF7 cells (fluorescence microscopy); assay type: cell-based; conditions: 100µM, 24-hour incubation
T1 construct: the full length human Geminin ortholog was used; expressed in transfected cells; host or cells: MCF7
T1 sequence (O75496 1-209): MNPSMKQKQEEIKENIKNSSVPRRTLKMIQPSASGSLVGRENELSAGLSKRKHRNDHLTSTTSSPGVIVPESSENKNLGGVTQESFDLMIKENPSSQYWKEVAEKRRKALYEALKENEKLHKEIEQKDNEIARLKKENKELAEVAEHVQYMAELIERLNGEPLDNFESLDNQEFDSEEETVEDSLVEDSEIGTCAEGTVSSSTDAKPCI
Description: A cellular assay was developed and applied using epithelial cells of breast adenocarcinoma (MCF7), for the purpose of the ex vivo study of the mechanism by which the inhibitory effect of the synthetic chemical compound affects the functional significance of the Geminin-Cdtl protein interaction.
Therefore, in order to determine the mechanism of action of the synthetic chemical compound AF-615/30368009, its effect on the Geminin nucleo-cytoplasmic translocation was studied ex vivo.
For the purposes of this experiment, the full length human Geminin ortholog was used as well as the protein Cdt1^DEL which corresponds to the human ortholog which lacks the amino acid residues 170-190. […]
For the implementation of the cellular assay, an appropriate number of cells were seeded onto glass coverslips and cells were allowed to culture in order to adhere. […] Then, the coverslips were washed with 1x PBS buffer (2 times), mounted on microscope slides using mounting medium containing the dye DAPI (that stains only nuclei) and were observed under a fluorescence microscope. […]
The experimental design included the transient co-transfection of MCF7 cancer cells with Geminin-GFP & dhcRed and Geminin-GFP & Cdt1^DEL-dhcRed. […] The intracellular localization of Geminin was detected by the autofluorescence of the GFP molecule. […]

[1] = biological target: T2, Geminin-miniCdt1 protein interaction (Homo sapiens, UniProt O75496+Q9H211); experiment: Surface plasmon resonance (SPR): inhibition of Geminin binding to immobilized miniCdt1
T2 construct: corresponds to the amino acid region 158-396 of the human Cdtl protein; Concentrations series of the full-length Geminin and the synthetic chemical compound were simultaneously injected
T2 sequence (Q9H211 158-396): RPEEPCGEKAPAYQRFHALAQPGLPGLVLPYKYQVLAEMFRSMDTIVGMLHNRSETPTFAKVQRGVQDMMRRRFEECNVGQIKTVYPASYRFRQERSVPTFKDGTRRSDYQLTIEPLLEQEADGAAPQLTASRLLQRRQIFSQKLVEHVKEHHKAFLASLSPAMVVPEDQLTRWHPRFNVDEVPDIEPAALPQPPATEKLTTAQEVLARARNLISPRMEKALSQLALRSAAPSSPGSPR
T2 sequence (O75496 1-209): T1 sequence (O75496 1-209)
Description: Surface plasmon resonance analysis was performed in order to determine in a quantitative manner the ability of the synthetic compound AF-615/30368009 (compound number 1 in Tables A and B, and Fig. 1) to inhibit the binding of Geminin to the protein miniCdt1 (which corresponds to the amino acid region 158-396 of the human Cdtl protein), by calculating the inhibition constant (KI).
Surface plasmon resonance spectroscopy (SPR) was performed at 25°C, using a Biosensor Biacore instrument (Biacore T100). About 6,000 RU of miniCdt1 protein were immobilized on a CMS Chip (Biacore) at pH 5.5, using amino coupling of Lysine residues. Concentrations series of the full-length Geminin and the synthetic chemical compound were simultaneously injected across the chip in a buffer containing 20 mM Hepes pH 7.5, 200 mM NaCl, 0.01% Tween 20 at a flow rate of 30µl/min. The concentrations used were 12, 36, 107, 322, 966nM for Geminin and 10 µM, 100µM, 1000µM for the compound. The injection of samples was carried out in the presence of 20% DMSO, to ensure high solubility.
In the graphs of Fig. 2, the x axis represents the different concentrations of Geminin (nM), while the y-axis the binding levels in RU (Response Units). […] The results in Fig. 2 indicate the specificity of the in vitro inhibitory effect of the synthetic chemical compound AF-615/30368009 on the Geminin-miniCdt1 protein interaction.

O=C(NNC(=S)N1CCOCC1)c1cnccn1 [AF-615/30368009, N'-(morpholine-4-carbothioyl)pyrazine-2-carbohydrazide]
intracellular localization of Geminin (Geminin; MCF7, co-transfection with Geminin-GFP & Cdt1^DEL-dhcRed (Fig. 4)): no detectable change | percentage of cells with nuclear localization of Geminin (Geminin; MCF7, co-transfection with Geminin-GFP & dhcRed (Fig. 4)): statistically significant increase | Ki ([1]; SPR at 25°C, Geminin 12-966nM, compound 10-1000µM, 20% DMSO, estimated value, read-out: inhibition constant (KI)): 750 ± 190 µM | inhibition of Geminin binding to miniCdt1 ([1]; compound at 1000 µM, SPR binding curves (Fig. 2)): exhibits inhibition of Geminin binding to miniCdt1

— patent publication EP3463364B1, “PYRAZINE DERIVATIVES FOR USE IN THE TREATMENT OF DISEASES ASSOCIATED WITH CELL CYCLE DYSREGULATION” (University of Patras, priority 2016, dated 2017)
